Measurements as given in publication PMC8347134, “Preparation of Antiproliferative Terpene-Alkaloid Hybrids by Free Radical-Mediated Modification of ent-Kauranic Derivatives” (Molecules, 2021).
Read-outs that look alike come from different tables or passages of the source.

Legend:
[1] = system: seven different tumor cell lines; experiment: Proliferation assays, best value over the seven tumor cell lines; type: cell-based; settings: for SImax: highest selectivity index over the tumor cell lines (Figure 4); for IC50 for retina (hTERT RPE-1) cells fold higher than for cancerous cells: highest selectivity indices
Procedure: (§1) A parallel cytotoxicity assay was performed on non-cancerous retina cells (hTERT RPE-1) in order to estimate the selectivity of the investigated compounds towards tumor cells. The inhibition of cell proliferation was calculated as IC50 by interpolation based on the semi-log dose response.
(§2) All cell lines were cultured as recommended by the suppliers. Culture media were purchased from Gibco Life Technologies, USA, and supplemented with 10% fetal bovine serum (HyClone, GE Healthcare Life Sciences, Logan, UT, USA). […] All stock solutions were prepared in DMSO.
(§3) After overnight incubation, cells were treated with the test compounds at seven different concentrations ranging from 100 to 6.4 × 10^−3 µM. […] The plates were incubated at 37 °C and monitored for 72 h in an IncuCyte® device (Essen BioScience Inc., Ann Arbor, MI, USA) for real-time imaging. Images were taken every 3 h, with one field imaged per well under 10× magnification. Cell growth was then quantified based on the percent cellular confluence as analysed by the IncuCyte® image analysis software and used to calculate IC50 values by linear interpolation. All tests have been performed in duplicate and the average values have been calculated.

[2] = system: HL-60 (acute myeloid leukemia); experiment: Cell proliferation assay (IncuCyte); type: cell-based; settings: for IC50: Homo sapiens, HL-60, 72 h; for SI HL-60: ratio IC50 hTERT RPE-1 / IC50 HL-60
Procedure: as §1, §2, §3

[3] = system: Capan-1 (pancreatic adenocarcinoma); experiment: Cell proliferation assay (IncuCyte); type: cell-based; settings: for IC50: Homo sapiens, CAPAN-1, 72 h; for SI Capan-1: ratio IC50 hTERT RPE-1 / IC50 Capan-1
Procedure: as §1, §2, §3

[4] = system: HCT-116 (colorectal carcinoma); experiment: Cell proliferation assay (IncuCyte); type: cell-based; settings: for IC50: Homo sapiens, HCT-116, 72 h; for SI HCT-116: ratio IC50 hTERT RPE-1 / IC50 HCT-116
Procedure: as §1, §2, §3

[5] = system: Z-138 (non-Hodgkin lymphoma); experiment: Cell proliferation assay (IncuCyte); type: cell-based; settings: for IC50: Homo sapiens, Z-138, 72 h; for SI Z-138: ratio IC50 hTERT RPE-1 / IC50 Z-138
Procedure: as §1, §2, §3

[6] = system: K-562 (chronic myeloid leukemia); experiment: Cell proliferation assay (IncuCyte); type: cell-based; settings: for IC50: Homo sapiens, K562, 72 h; for SI K-562: ratio IC50 hTERT RPE-1 / IC50 K-562
Procedure: as §1, §2, §3

[7] = system: NCI-H460 (lung carcinoma); experiment: Cell proliferation assay (IncuCyte); type: cell-based; settings: for IC50: Homo sapiens, NCI-H460, 72 h; for SI NCI-H460: ratio IC50 hTERT RPE-1 / IC50 NCI-H460
Procedure: as §1, §2, §3

[8] = system: DND-41 (acute lymphoblastic leukemia); experiment: Cell proliferation assay (IncuCyte); type: cell-based; settings: for IC50: DND41, 72 h; for SI DND-41: ratio IC50 hTERT RPE-1 / IC50 DND-41
Procedure: as §1, §2, §3

[9] = system: hTERT RPE-1; experiment: Parallel cytotoxicity assay on non-cancerous retina cells; type: cell-based
Procedure: as §1, §2, §3

[10] = system: NCI-H460; parameters: method as in earlier work; settings: reference drugs; cited from earlier work
[11] = hTERT-RPE1, 72 h, duplicate, mean ± deviation
[12] = lowest IC50 over the tumor cell lines (Figure 4), read-out: IC50 min

SMILES	IC50 ([2]; duplicate, mean ± deviation) [µM]	IC50 ([3]; duplicate, mean ± deviation) [µM]	SI Capan-1 [3]	IC50 ([4]; duplicate, mean ± deviation) [µM]	SI HCT-116 [4]	IC50 ([5]; duplicate, mean ± deviation) [µM]	IC50 ([6]; duplicate, mean ± deviation) [µM]	IC50 ([7]; duplicate, mean ± deviation) [nM]	SI NCI-H460 [7]	IC50 ([8]; duplicate, mean ± deviation) [µM]	IC50 [9, 11] [µM]	SImax [1]	IC50 for retina (hTERT RPE-1) cells fold higher than for cancerous cells [1]	IC50 [1, 12] [nM]	SI DND-41 [8]	SI Z-138 [5]	other results
COC(=O)[C@]1(C)CCC[C@@]2(C)[C@@H]3CC[C@@H]4C[C@@]3(CC[C@@H]21)[C@H]1OC(=O)CC=C41 [Compound 22]	3.7 ± 1.3	1.3 ± 0.6	1.1	0.5 ± 0.2	2.8	2.4 ± 1.1	2.5 ± 0.1	1400 ± 300	1	2.3 ± 0.3	1.4 ± 0.1	–	–	–	–	–	IC50 ([1]; tumor cell lines, read-out: IC50 values): < 1000 nM
CN[C@@H]1C[C@H]2O[C@@](C)([C@@H]1OC)n1c3ccccc3c3c4c(c5c6ccccc6n2c5c31)C(=O)NC4 [SP, staurosporine, reference compound]	–	–	–	–	–	–	–	–	–	–	–	–	–	–	–	–	IC50 ([2]; positive controls): 0.0091 ± 0.0016 µM; IC50 ([6]; positive controls): 0.0279 ± 0.0032 µM; IC50 ([7]; positive controls): 2.2 ± 0.8 nM; IC50 ([8]; positive controls): 0.0086 ± 0.0015 µM
CC(=O)O[C@@]12CO[C@@H]1C[C@H](O)[C@@]1(C)C(=O)[C@H](O)C3=C(C)[C@@H](OC(=O)[C@H](O)[C@@H](NC(=O)OC(C)(C)C)c4ccccc4)C[C@@](O)([C@@H](OC(=O)c4ccccc4)[C@H]21)C3(C)C [DT, docetaxel, reference compound]	–	–	–	–	–	–	–	–	–	–	–	–	–	–	–	–	IC50 ([2]; positive controls): 0.0043 ± 0.0016 µM; IC50 ([3]; positive controls): 0.0042 ± 0.0018 µM; IC50 ([4]; positive controls): 0.0022 ± 0.0008 µM; IC50 ([5]; positive controls): 0.0037 ± 0.0007 µM; IC50 ([6]; positive controls): 0.0052 ± 0.0012 µM; IC50 ([7]; positive controls): 5.5 ± 1.3 nM; IC50 ([8]; positive controls): 0.0047 ± 0.0012 µM; IC50 ([9]; hTERT-RPE1, positive controls, 72 h): 0.0187 ± 0.0048 µM
COC(=O)C1(C)CCCC2(C)C3CCC4CC3(CCC12)CC41CCC(=O)N1 (stereo not shown) [Compound 12]	38.3 ± 17.8	1.2 ± 0.7	6.3	0.8 ± 0.2	9.5	52 ± 33.4	36.4 ± 11.5	1400 ± 100	5.4	21.4 ± 10.1	7.6 ± 0.5	9.5	up to 43 fold	800 ± 200	–	–	–
COC(=O)C1(C)CCCC2(C)C1CCC13CC(CCC21)C1(CCC(=O)N1)C3O (stereo not shown) [Compound 27]	38 ± 11.8	3.7 ± 1.7	7.5	4 ± 3.7	6.9	39.8 ± 10.9	56.5 ± 2.8	1900 ± 200	14.6	8.3 ± 2	27.7 ± 4.3	14.6	up to 43 fold	1900 ± 200	3.3	–	–
COC(=O)[C@]1(C)CCC[C@@]2(C)[C@@H]3CC[C@@H]4C[C@@]3(CC[C@@H]21)C[C@@]4(CCC(=O)O)N=[N+]=[N-] [Compound 14]	46.2 ± 9.1	44.5 ± 8.3	–	5.8 ± 0.1	4.5	22.7	41	31100 ± 1600	–	44.5 ± 4.8	26.2 ± 0.9	–	–	–	–	1.2	–
COC(=O)C1(C)CCCC2(C)C3CCC4CC3(C=C4CCC#N)CCC12 (stereo not shown) [Compound 16]	33.6 ± 2.6	18.1 ± 3.4	2.1	19 ± 5.7	2.0	22.1 ± 11.4	58.4 ± 2.5	15400 ± 6000	2.5	7.8 ± 1	38.2 ± 5.1	4.9	–	7800 ± 1000	4.9	1.7	SI HL-60 [2]: 1.1
CC1(C(=O)O)CCCC2(C)C1CCC13CC(CCC21)C(CCC#N)(N=[N+]=[N-])C3O (stereo not shown) [Compound 25]	> 100	6.4 ± 1.5	5.3	34.4 ± 0.5	–	52 ± 17.4	> 100	34000 ± 2900	–	36.4 ± 9.8	33.6 ± 4.5	5.3	–	6400 ± 1500	–	–	–
CCOC(=O)CC[C@@]1(N=[N+]=[N-])C[C@@]23CC[C@H]4[C@@](C)(CCC[C@@]4(C)C(=O)OC)[C@@H]2CC[C@@H]1C3 [Compound 11]	3 ± 1.4	1.7 ± 0.5	1.1	1 ± 0.4	1.8	0.5 ± 0.2	8.8 ± 2.2	1300 ± 100	1.4	1.4 ± 0.3	1.8 ± 0.4	3.6	up to 43 fold	500 ± 200	1.3	3.6	–
COC(=O)CCC1(N=[N+]=[N-])C2CCC3C4(C)CCCC(C)(C(=O)OC)C4CCC3(C2)C1O (stereo not shown) [Compound 26]	41.1 ± 15.9	8.3 ± 1.1	3.1	9.9 ± 2.7	2.6	21.6 ± 5.4	36.9 ± 0.2	600 ± 200	43.2	6.6 ± 1.3	25.9 ± 0.3	43.2	up to 43 fold	600 ± 200	3.9	1.2	–
COC(=O)C1(C)CCCC2(C)C1CCC13CC(CCC21)C(CCC(=O)O)(N=[N+]=[N-])C3O (stereo not shown) [Compound 24]	49.3 ± 5	33.2 ± 7.6	–	18.8 ± 8	1.7	25.2 ± 0.3	76.3 ± 1.4	41800 ± 5300	–	38.9 ± 4.1	31.7 ± 3.1	–	–	–	–	1.3	–
CCOC(=O)CCC1=C[C@@]23CC[C@H]4[C@@](C)(CCC[C@@]4(C)C(=O)OC)[C@@H]2CC[C@@H]1C3 [Compound 7]	19.6 ± 7.7	37.1 ± 3.9	–	30.7 ± 16.4	–	27.6 ± 15.5	24.7 ± 11.8	12000 ± 1500	2.4	36.5 ± 0.7	29.2 ± 1.2	–	–	–	–	1.1	SI HL-60 [2]: 1.5; SI K-562 [6]: 1.2
N.N.[Cl][Pt][Cl] [Cisplatin]	–	–	–	–	–	–	–	–	–	–	–	–	–	–	–	–	IC50 [10]: 5.33 µM
COC(=O)C1(C)CCCC2(C)C3CCC4CC3(CCC12)CC41CCCN1 (stereo not shown) [Compound 13]	8.3 ± 1.3	11.5 ± 1	2.8	11.6 ± 0.5	2.8	9.5 ± 0.9	3.2 ± 1	1000 ± 100	32.2	6.1 ± 1.1	32.2 ± 2	32.2	up to 43 fold	1000 ± 100	5.3	3.4	SI HL-60 [2]: 3.9; SI K-562 [6]: 10.1
